{"source": "patent US20180030546A1", "about": "“Identification of a 5-Gene Expression Signature Predicting Clinical Outcome of Patients with Brain Tumors” (THE TRUSTEES OF COLUMBIA UNIVERSITY IN THE CITY OF NEW YORK, priority 2012, published 2018)", "key": {"[1]": {"tested_on": "Ras-V12-IRES-Cre-ER-shp53 HGG", "experiment": "Survival of glioma-bearing Id-cTKO mice treated with tamoxifen or oil", "assay_type": "in vivo, mouse"}, "[2]": {"tested_on": "Ras-V12-IRES-Cre-ER-shp53 HGG", "experiment": "Histology and immunostaining of Ras-V12-IRES-Cre-ER-shp53 tumors after tamoxifen or oil", "assay_type": "in vivo, mouse", "experimental": "(§1) Tissue preparation and immunohistochemistry on brain tumors and immunofluorescence staining were performed as previously described (26, 50, 51). In histograms, values represent the mean values; error bars are standard deviations (SD) or standard error of the mean (SEM) as indicated in Figure legends. Statistical significance was determined by t test (two-tailed) using GraphPad Prism 4.0 software (GraphPad Inc., San Diego, Calif.). Quantification of the IL-6 intensity staining in was performed using NIH Image J software (http://rsb.info.nih.gov/ij/). The histogram of the intensity of fluorescence of each point of a representative field for each condition was generated. The fluorescence intensity of three fields from three independent tumors was scored, and standardized to the number of cells in the field.\nIntracranial injection of Ras-V12-IRES-Cre-ER-shp53 lentivirus was performed in 4-week-old Id-cTKO mice in accordance with guidelines of the […] Animal Care and Use Committee. Briefly, 1.3 μl of purified lentiviral particles in PBS (1×10^9/ml) were injected 1.45 mm lateral and 1.6 mm anterior to the bregma, and 2.3 mm below the skull using a stereotaxic frame (Kopf Instruments). Orthotopic implantation of mouse glioma cells was performed as described using 50,000 cells in 2 μof phosphate buffer (26). […] Mice were monitored daily and sacrificed when neurological symptoms appeared. Tumor volume was obtained using three-dimensional measurements in the formula for an ellipsoid: [Length×Width×Height×(π/6)]. The dimensions were derived from a complete, H&E stained, histological sectioning of the mouse brain. The length was determined by counting the number of sections containing tumor cells and multiplying it by the section thickness. […] Kaplan-Meier survival curve was generated using the DNA Statview software package (AbacusConcepts, Berkeley, Calif.)."}, "[3]": {"tested_on": "GICs from HrasV12-Cre-ER-shp53 glioma", "experiment": "Glioma sphere formation and limiting dilution assay", "assay_type": "cell-based, mouse", "experimental": "For human and mouse glioma sphere formation, cells were infected with lentiviral particles. Three days later single cells were plated at density of ≦3 cells/well in triplicate in low attachment 96 well plates. The number and the size of spheres were scored after 10-14 days. Limiting dilution assay was performed as described previously (24). Spheres were dissociated into single cells and plated in 96-well plates in 0.2 ml of medium containing growth factors. Cultures were left undisturbed for 10 days, and then the percentage of wells not containing spheres for each cell dilution was calculated and plotted against the number of cells per well. Linear regression lines were plotted, and the number of cells required to generate at least one sphere in every well (=the stem cell frequency) was calculated. The experiment was repeated twice."}, "[4]": {"tested_on": "SSEA1 and ITGα6 positive GICs", "experiment": "Proximity of GICs to CD31 positive endothelial cells in the perivascular niche", "assay_type": "in vivo, mouse", "conditions": "Id-cTKO tumors versus controls", "experimental": "as §1"}}}
{"smiles": "CC/C(=C(\\c1ccccc1)c1ccc(OCCN(C)C)cc1)c1ccccc1", "note": "[tamoxifen]", "values": [{"measurement": "mice alive after a median of twenty weeks", "setting": "[1]; Id-cTKO mice, HrasV12-Cre-ER-shp53 lentivirus, tamoxifen by feeding needle, 4-day cycles from day 12, seven of eleven mice", "result": 64, "unit": "%"}, {"measurement": "tumor growth", "setting": "[1]; wild type animals infected with HrasV12-Cre-ER-shp53 lentivirus (without ID ablation), data not shown", "result": "did not affect tumor growth"}, {"measurement": "tumors with dramatic reduction of tumor volume compared with carrier-treated tumors", "setting": "[2]; Id-cTKO mice sacrificed six weeks after tumor initiation", "result": 80, "unit": "%"}, {"measurement": "reduction in the proliferation rate measured by Ki67 immunoreactivity", "setting": "[2]; Id-cTKO mice, six weeks after tumor initiation, versus control tumors", "result": "four-fold"}, {"measurement": "ID1 and ID2 expression in advanced tumors by immunofluorescence", "setting": "[2]; seven days after a single four-day cycle of tamoxifen treatment", "result": "loss of ID1 and ID2 expression"}, {"measurement": "tumor-sphere forming capacity", "setting": "[3]; GICs derived from Id1wt/wt;Id2wt/wt;Id3-/- mice", "result": "no effect"}, {"measurement": "tumor-sphere forming capacity", "setting": "[3]; GICs isolated from Id-cTKO mice", "result": "abolished"}, {"measurement": "minimal frequency of glioma cells endowed with stem cell capacity", "setting": "[3]; limiting dilution, cells from freshly dissociated tumors of treated animals, control 3.84%±0.51", "result": "0.29%±0.02"}, {"measurement": "reduction of the fraction of GICs residing within 10 μm from CD31-positive cells", "setting": "[4]", "result": "five-fold"}]}
